Assay results reported in publication PMC9529985, “Eco-friendly methods of synthesis and preliminary biological evaluation of sulfonamide derivatives of cyclic arylguanidines” (Ultrasonics Sonochemistry, 2022).
Where two headings read alike, the source gives them in different places. Each block holds one compound with its values, some of them ahead of it.

What was measured:
[1] = Metabolic stability in mouse liver microsomes (MLMs); type: in vitro ADME; details: for Metabolic pathway: metabolites identified by UPLC-MS; for remaining at 2 h, 50 µM: mouse, liver microsomes, MLMs 1 mg/ml
Method: The ADME-Tox parameters of 10f were analyzed according to described previously protocols, [45] and included: Parallel Artificial Membrane Permeability Assay (PAMPA) passive permeability testing, the influence on CYP3A4 activity, metabolic stability in mouse liver microsomes, and hepatotoxicity assessment with HepG2 cells.
The metabolic stability of 10f was estimated with mouse liver microsomes (MLMs) (Sigma-Aldrich, St. Louis, MO, USA). The tested compound (50 µM) was incubated in the presence of MLMs (1 mg/ml) for 120 min in a buffer (10 mM Tris–HCl buffer at 37 °C). Then, to terminate the reaction, cold methanol was added to the reaction mixture. The precipitated MLMs were centrifuged and the supernatant was analyzed with a LC/MS Waters ACQUITY™ TQD system with the TQ Detector (Waters, Milford, USA).

[2] = system: human astrocytoma cell line 1321 N1; assay: MTS cytotoxicity test in 1321 N1 astrocytoma cells; type: cell-based; details: 1321 N1 cells; for concentration at which activity (statistically significant suppression of cell viability) was seen / IC50: MTS; for viability of the cells compared to vehicle control: 24 h exposure; for IC50: 50 % decrease relative to the maximum inhibition observed, read-out: IC50 (cell viability)
Method: (§1) The cytotoxic properties of newly synthetized compounds were assessed in human astrocytoma cell line 1321 N1 (RRID:CVCL_0110, European Collection of Authenticated Cell Cultures, ECACC:86030402) and human breast adenocarcinoma cell line MDA-MB-231 (RRID:CVCL_0062; ATCC:HTB-26). ECACC and ATCC perform thorough cell line authentication utilizing Short Tandem Repeat (STR) profiling. Upon receipt of the cell lines, the cells were expanded for a few passages to enable the generation of new frozen stocks. The cells were resuscitated as needed and used for<6 months after resuscitation (no>15 passages). Cell line 1321 N1 was cultured in high-glucose (4500 mg/L) Dulbecco's modified Eagle's medium (DMEM) supplemented with 10 % fetal bovine serum (FBS). The MDA-MB-231 cells were maintained in RPMI-1640 with 10 % FBS. All cell culture media were additionally fortified with penicillin (100 U/mL), streptomycin (100 µg/mL), and amphotericin B (250 ng/mL) to prevent bacterial and yeast contamination. The cell culture media and supplements used in this study were purchased from Sigma-Aldrich. The cells were maintained at 37 °C in a humidified 5 % incubator in an atmosphere of 5 % CO2 and 95 % air.
The cells were subcultured upon reaching the confluency of about 80 %. Cell detachment was facilitated with TrypLE solution (Thermo Fisher Scientific). The cells were counted in a Z2 particle counter (Beckman Coulter), then plated at 5,000 cells/well in 96-well plates (Eppendorf) in 100 µL of full growth medium and cultured overnight to enable cell attachment. Next day, the cells were subjected to either vehicle (0.1 % DMSO) or our compounds of interest for 24, 48, or 72 h. The assessment of cell viability was performed by adding 20 µL/well of the mixture of 3-(4,5-dimethylthiazol-2-yl)-5-(3-carboxymethoxyphenyl)-2-(4-sulfophenyl)–2H-tetrazolium, inner salt (MTS) and phenazine ethosulfate from Promega (#G3580). After 3 h of incubation, the absorbance was recorded at 490 nm using Synergy H1 plate reader (Biotek) The experiments were carried out in quadruplicates and were repeated three times. The obtained values were normalized to vehicle control and plotted.
The IC50 values were calculated with GraphPad Prism 8.0.1 software (nonlinear regression, log(inhibitor) vs normalized response) as the dose that causes a 50 % decrease in cell viability relative to the maximum inhibition observed. Statistical significance determination was evaluated with GraphPad Prism 5.0.1 software using one-way ANOVA, followed by Bonferroni’s comparison test (p < 0.05).

[3] = system: human breast adenocarcinoma cell line MDA-MB-231; assay: MTS cytotoxicity test in MDA-MB-231 cells; type: cell-based; details: 24 h, read-out: IC50 (cell viability)
Method: as §1, with “All cell culture media were additionally fortified with penicillin (100 U/mL), streptomycin (100 µg/mL), and amphotericin B (250 ng/mL) to prevent bacterial and yeast contamination. The cell culture media and supplements used in this study were purchased from Sigma-Aldrich. The cells were maintained at 37 °C in a humidified 5 % incubator in an atmosphere of 5 % CO2 and 95 % air.” left out
The cells were subcultured upon reaching the confluency of about 80 %. […] The cells were counted in a Z2 particle counter (Beckman Coulter), then plated at 5,000 cells/well in 96-well plates (Eppendorf) in 100 µL of full growth medium and cultured overnight to enable cell attachment. […] After 3 h of incubation, the absorbance was recorded at 490 nm using Synergy H1 plate reader (Biotek) The experiments were carried out in quadruplicates and were repeated three times. […]

[4] = system: HepG2 human hepatoma cell line; assay: Hepatotoxicity, MTS assay in HepG2 cells; type: cell-based; details: 72 h (Fig. 6 legend)
Method: Hepatotoxicity was evaluated by means of an MTS assay described above (section 23) with a HepG2 human hepatoma cell line (ATCC:HB-8065), [48]. […] Compound 10f was tested in a single experiment in quadruplicate.

[5] = Metabolic stability in mouse liver microsomes (MLMs); type: in vitro ADME; details: TRIS-HCl pH 7.4 buffer solution without microsomes, 120 min
[6] = PAMPA passive permeability; type: in vitro ADME; details: PBS pH 7.4, 5 h, room temperature
Method: The ADME-Tox parameters of 10f were analyzed according to described previously protocols, [45] and included: Parallel Artificial Membrane Permeability Assay (PAMPA) passive permeability testing, the influence on CYP3A4 activity, metabolic stability in mouse liver microsomes, and hepatotoxicity assessment with HepG2 cells. The pre-coated PAMPA Plate System Gentest was sourced from Corning (Tewksbury, MA, USA). […] The plate was incubated at room temperature for 5 h without stirring. Then, 50 μL was aspirated from both Acceptor (A) and Donor (D) wells and then diluted with a 50 µL solution of an internal standard (IS). The concentrations of the tested compounds in the A and D wells were estimated with an LC/MS Waters ACQUITY™ TQD system with the TQ Detector (Waters, Milford, USA). The Pe values were estimated according to the proper formulas provided by Corning and described previously in the literature.

SMILES: O=S(=O)(Nc1ncc2ccccc2n1)c1cccc2ccccc12 [Dehydrogenated-10f, N-(quinazolin-2-yl)naphthalene-1-sulfonamide]
Metabolic pathway ([1]; MLMs): double hydroxylation
remaining at 2 h, 50 µM ([1]; 120 min): 17.5%

SMILES: COc1cccc2c1C(=O)c1c(O)c3c(c(O)c1C2=O)C[C@@](O)(C(=O)CO)C[C@@H]3O[C@H]1C[C@H](N)[C@H](O)[C@H](C)O1 [doxorubicin, reference compound]
viability of the cells compared to vehicle control [2]: 47.5%
IC50 ([2]; Homo sapiens, 24 h): 1100 nM
IC50 [3]: 1400 nM

SMILES: Cn1c(=O)c2c(ncn2C)n(C)c1=O [caffeine, reference compound]
permeability coefficient Pe ([6]; 200 µM): 12.2 ± 0.9 × 10^-6 cm/s

Further lines, with some results ahead:

melting point: > 300 °C
SMILES: O=S(=O)(Nc1nc2ccccc2[nH]1)c1ccccc1 [10a, N-(1H-benzimidazol-2-yl)benzenesulfonamide]

melting point: > 300 °C
SMILES: O=S(=O)(NC1=NCc2ccccc2N1)c1ccc2ccccc2c1 [10g, N-(1,4-dihydroquinazolin-2-yl)naphthalene-2-sulfonamide]

melting point: 188 to 194 °C
SMILES: Nc1nc2ccccc2n1S(=O)(=O)c1ccc2ccccc2c1 [11c, 1-(naphthalene-2-sulfonyl)-1H-benzimidazol-2-amine]

melting point: 225 to 229 °C
SMILES: Nc1nc2cc(Cl)ccc2n1S(=O)(=O)c1cccc2ccccc12 [11d, 5-chloro-1-(naphthalene-1-sulfonyl)-1H-benzimidazol-2-amine]
concentration at which activity (statistically significant suppression of cell viability) was seen ([2]; 24 h): 1 µM

dehydrogenation in control sample [5]: 5%
metabolic stability (in words) ([1]; MLMs, 120 min): unstable
metabolized ([1]; MLMs, 120 min incubation, UPLC): 97%
remaining at 2 h, 50 µM ([1]; 120 min): 3%
Papp at 5 h, 200 µM ([6]; read-out: permeability coefficient Pe): 5 ± 1.5 ×10⁻⁶ cm/s
SMILES: O=S(=O)(NC1=NCc2ccccc2N1)c1cccc2ccccc12 [10f, N-(1,4-dihydroquinazolin-2-yl)naphthalene-1-sulfonamide]
hepatotoxicity (in words) ([4]; HepG2, 1–10 µM): did not exhibit hepatotoxic properties
effect on cell viability (in words) ([4]; HepG2, 50 or 100 µM): statistically significant decrease in cells viability
concentration at which activity (statistically significant suppression of cell viability) was seen ([2]; 24 h): 1 µM
viability of the cells compared to vehicle control [2]: 48.0%
IC50 ([2]; Homo sapiens, 24 h): 8220 nM
viability at 50 µM ([2]; Homo sapiens, 72 h, 50 µM, read-out: cells still viable): 32%
IC50 ([2]; Homo sapiens, 72 h): 130 nM
Metabolic pathway ([1]; MLMs): double hydroxylation and double bound reduction

melting point: 207 to 209 °C
SMILES: O=S(=O)(NC1=NCc2cc(Cl)ccc2N1)c1ccc2ccccc2c1 [10h, N-(6-chloro-1,4-dihydroquinazolin-2-yl)naphthalene-2-sulfonamide]

melting point: 182 to 186 °C
SMILES: O=S(=O)(NC1=NCc2ccccc2N1)c1ccccc1 [10e, N-(1,4-dihydroquinazolin-2-yl)benzenesulfonamide]
